Holding throughout (assay type): cell-based
The target of assay [1] is T1, A431 (EGFR_WT) (Homo sapiens, UniProt P00533).
T1 construct: endogenous in cells; host or cells: A431, NCI-H2073, NCI-H292
Put plainly: EGFR degradation assay (western blot), A431 cells. Conditions: compounds 24 h, western blot, read-out: A431 DC50. Here is the method: A431 (EGFR_WT), NCl-H2073 (EGFR_WT), NCl-H292 (EGFR_WT), BaF3_YVAM (Her2_A775insYVAM), BaF3_SVD (EGFR_D770insSVD), BaF3_ASV (EGFR_A776inASV), or BaF3_DTC (EGFR_Exon19del/T790M/C797S) cells were seeded in a 24-well plate at a density of 4×10^5 cells per well for EGFR WT cells and 8× cells per well for EGFR or Her2 mutant cells, and the plates were incubated overnight. The cells were treated with the desired compounds for 24 h. The culture medium was removed, and 100 μL of RIPA buffer (Beyotime, P0013B) containing 1% Protease Inhibitor Cocktail (Bimake, B14001), 1% Phosphatase Inhibitor Cocktail 2 (Sigma, P5726), and 1% Phosphatase Inhibitor Cocktail 3 (Sigma, P0044) were added to lyse the cells. Then, the cell lysates were transferred to 1.5 mL microcentrifuge tubes and centrifuged at 12,000 rpm and 4° C. for 30 min. The supernatants were transferred into new tubes, and the protein concentration was determined using the BCA protein quantification method. All samples were diluted to the same concentration using RIPA buffer, loading buffer was added, samples were denatured, and 15 μg of protein per lane was loaded onto a SurePAGE 4-20% Bis-Tris gel. Samples were separated via electrophoresis in MOPS running buffer at 180 V for 100 min. Then, proteins were transferred onto PVDF membranes using the MiniBlot™ Electrophoretic Transfer Cell Device (Beyotime, E6050). The membrane was blocked using block buffer (LI-COR 927-60001) to prevent non-specific binding. The membrane was incubated with primary antibodies (1:500 dilution, EGFR-CST4405, 1:2000 dilution, Tubulin-ABclonal #AC021) at 4° C. overnight. The membrane was washed three times with 1× TBST buffer for 15 min each. The membrane was incubated with secondary antibodies IRDye 680RD Goat anti-Rabbit IgG Secondary Antibody (1:2000 dilution, LI-COR 926-68071) and IRDye 800CW Goat anti-Mouse IgG Secondary Antibody (1:2000 dilution, LI-COR 926-32210). Finally, the membrane was washed again with 1× TBST buffer 3 times. Fluorescence was detected using the Odyssey CLx Imaging System, and the data were analyzed with Empiria Studio Software and GraphPad Prism 9. Table 4 and Table 5 list the degradation results, where the degradation potency is represented by DC50, the concentration of compounds to cause the degradation of 50% of the corresponding proteins. FIGS. 45-49 show western blots illustrating the EGFR degradative activity of exemplary Compound of the present disclosure and a comparator Compound A in different cell lines 24 h after administration. The Compound referred herein as Compound A is disclosed in WO 2022/171123 A1 (see, compound 133, page 46; published Aug. 18, 2022). WO 2022/171123 A1 discloses phosphine oxide derived molecules with EGFR degradation activity.
Background: Immunoblotting shows a protein as a band on a membrane.

For assay [2], the system named is BaF3_DTC (EGFR_Exon19del/T790M/C797S). Briefly: EGFR degradation assay (western blot), BaF3_DTC cells. Conditions: BaF3_DTC cells (EGFR_Exon19del/T790M/C797S), compounds 24 h, western blot; read-out: BaF3_DTC DC50. In a few lines: (§1)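 Cells seeded overnight, then exposed to compounds for 24 h; lysates run on western blot, EGFR probed with tubulin loading control and fluorescent secondary detection. DC50 = concentration giving 50% EGFR degradation.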

In assay [3] the target is T2, BaF3_ASV (EGFR_A776inASV) (Homo sapiens, UniProt P00533, DUP767-769).
T2 construct: expressed in transfected cells; host or cells: Ba/F3 (engineered)
T2 sequence (P00533 with tags, fused parts or gaps DUP767-769): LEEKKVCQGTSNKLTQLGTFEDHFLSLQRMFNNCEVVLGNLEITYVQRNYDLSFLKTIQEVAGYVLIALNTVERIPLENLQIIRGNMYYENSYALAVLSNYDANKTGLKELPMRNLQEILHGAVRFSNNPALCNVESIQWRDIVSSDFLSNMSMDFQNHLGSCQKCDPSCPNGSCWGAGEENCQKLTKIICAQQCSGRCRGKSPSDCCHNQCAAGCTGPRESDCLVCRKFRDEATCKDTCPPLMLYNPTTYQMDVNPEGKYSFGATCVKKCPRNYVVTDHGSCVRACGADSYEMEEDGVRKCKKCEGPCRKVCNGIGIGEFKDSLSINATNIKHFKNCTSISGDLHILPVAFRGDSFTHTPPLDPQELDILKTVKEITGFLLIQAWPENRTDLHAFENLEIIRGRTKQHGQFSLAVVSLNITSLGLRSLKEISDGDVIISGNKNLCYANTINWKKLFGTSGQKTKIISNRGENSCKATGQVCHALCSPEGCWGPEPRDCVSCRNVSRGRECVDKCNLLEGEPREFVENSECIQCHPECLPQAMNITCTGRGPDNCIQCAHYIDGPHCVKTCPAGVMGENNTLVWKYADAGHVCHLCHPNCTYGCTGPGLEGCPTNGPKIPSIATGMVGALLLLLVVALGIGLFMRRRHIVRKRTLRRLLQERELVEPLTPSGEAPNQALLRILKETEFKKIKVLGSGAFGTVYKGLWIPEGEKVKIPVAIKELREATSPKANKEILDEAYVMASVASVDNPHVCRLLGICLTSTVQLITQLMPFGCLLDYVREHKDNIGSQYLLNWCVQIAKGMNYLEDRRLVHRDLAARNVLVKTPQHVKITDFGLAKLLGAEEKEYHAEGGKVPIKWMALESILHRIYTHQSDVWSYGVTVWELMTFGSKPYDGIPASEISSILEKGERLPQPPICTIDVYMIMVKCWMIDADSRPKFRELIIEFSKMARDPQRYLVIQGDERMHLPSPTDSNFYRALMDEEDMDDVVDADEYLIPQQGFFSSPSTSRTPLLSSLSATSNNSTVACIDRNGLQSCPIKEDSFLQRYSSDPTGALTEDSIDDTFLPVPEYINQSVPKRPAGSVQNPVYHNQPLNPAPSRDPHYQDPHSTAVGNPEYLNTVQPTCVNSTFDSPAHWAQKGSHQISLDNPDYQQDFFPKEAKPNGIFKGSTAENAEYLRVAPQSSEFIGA
Put plainly: EGFR degradation assay (western blot), BaF3_ASV cells. Conditions: BaF3_ASV cells, compounds 24 h, western blot; read-out: BaF3_ASV DC50. The essentials:
as §1

Assay [4] deals with A431. Put plainly: Cell growth inhibition assay (CellTiter-Glo), A431. Conditions: Homo sapiens, A-431, 72 h, Table 6; A431 cells, three days, CellTiter-Glo; read-out: A431 GI50. The essentials: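 This growth inhibition assay reports GI50, the compound concentration producing 50% inhibition of cell growth relative to DMSO. Seeded cells (90 μL medium per well, 96-well Corning 3610 plates, overnight at 37° C.) received 10 μL of compound diluted 1:100 from a 1,000× DMSO stock. Luminescence was measured on Envision (PerkinElmer) and analyzed in GraphPad Prism 9.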

Assay [5] has as its system BaF3_DTC. Briefly: Cell growth inhibition assay (CellTiter-Glo), BaF3_DTC. Conditions: 72 h; Table 6; BaF3_DTC cells, three days, CellTiter-Glo; read-out: BaF3_DTC GI50. (In general: ATP-based viability assays read luminescence as a measure of living cells.)
Assay [6] concerns BaF3_ASV. Put plainly: Cell growth inhibition assay (CellTiter-Glo), BaF3_ASV. Conditions: 72 h; Table 6; BaF3_ASV cells, three days, CellTiter-Glo; read-out: BaF3_ASV GI50.

T1 sequence (P00533 25-1210): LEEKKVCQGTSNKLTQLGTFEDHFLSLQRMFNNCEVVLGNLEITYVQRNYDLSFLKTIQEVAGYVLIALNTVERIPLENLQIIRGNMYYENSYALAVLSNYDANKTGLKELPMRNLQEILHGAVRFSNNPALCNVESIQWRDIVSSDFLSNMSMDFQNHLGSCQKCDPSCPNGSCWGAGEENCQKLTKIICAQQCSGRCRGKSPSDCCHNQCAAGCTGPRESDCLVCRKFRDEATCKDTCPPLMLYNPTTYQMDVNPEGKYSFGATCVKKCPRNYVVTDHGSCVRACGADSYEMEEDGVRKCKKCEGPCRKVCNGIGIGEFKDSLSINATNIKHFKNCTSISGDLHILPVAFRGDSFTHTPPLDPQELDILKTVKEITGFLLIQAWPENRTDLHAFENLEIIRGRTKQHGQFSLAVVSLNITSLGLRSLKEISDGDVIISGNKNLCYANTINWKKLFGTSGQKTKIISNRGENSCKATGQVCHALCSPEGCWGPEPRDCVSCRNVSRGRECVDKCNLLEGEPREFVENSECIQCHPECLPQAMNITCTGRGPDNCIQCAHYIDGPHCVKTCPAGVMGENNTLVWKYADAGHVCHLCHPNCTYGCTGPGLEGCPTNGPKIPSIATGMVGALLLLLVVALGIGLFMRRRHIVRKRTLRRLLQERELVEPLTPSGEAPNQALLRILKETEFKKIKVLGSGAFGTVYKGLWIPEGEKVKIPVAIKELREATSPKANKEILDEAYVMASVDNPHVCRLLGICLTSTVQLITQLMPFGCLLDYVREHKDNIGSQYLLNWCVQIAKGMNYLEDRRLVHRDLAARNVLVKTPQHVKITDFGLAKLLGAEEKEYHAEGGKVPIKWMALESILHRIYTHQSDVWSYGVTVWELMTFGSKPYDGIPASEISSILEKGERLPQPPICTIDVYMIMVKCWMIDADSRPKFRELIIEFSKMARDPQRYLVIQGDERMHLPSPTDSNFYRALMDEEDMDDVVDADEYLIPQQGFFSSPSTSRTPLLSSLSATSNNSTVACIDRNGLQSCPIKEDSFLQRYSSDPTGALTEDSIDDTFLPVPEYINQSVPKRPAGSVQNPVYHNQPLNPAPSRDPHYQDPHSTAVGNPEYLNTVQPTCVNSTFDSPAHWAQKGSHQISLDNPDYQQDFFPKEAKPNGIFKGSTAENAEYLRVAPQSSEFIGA

As a reminder, the DC50 is the concentration at which degradation of the target reaches its halfway point. Broadly, the GI50 is the concentration at which growth is held to half of that of the control. Consider `CCc1cc(Nc2ncc(Br)c(Nc3ccc4nccnc4c3NS(C)(=O)=O)n2)c(OC)cc1N1CCC(N2CCC(C(=O)N3CCN(c4ccc5c(c4)CN([C@H]4CCC(=O)NC4=O)C5=O)CC3)CC2)CC1` [Compound 41, (S)-N-(6-((5-bromo-2-((4-(4-(4-(2-(2,6-dioxopiperidin-3-yl)-1-oxoisoindolin-5-yl)piperazine-1-carbonyl)-[1,4′-bipiperidin]-1′-yl)-5-ethyl-2-methoxyphenyl)amino)pyrimidin-4-yl)amino)quinoxalin-5-yl)methanesulfonamide], for which the DC50 in assay [1] was greater than 1000 nM; in assay [2] it was greater than 100 nM; in assay [3] it was 335 nM. Further, the GI50 in assay [4] is greater than 1000 nM; in assay [5] it was 123 nM; in assay [6] it was 52.7 nM.
Consider `CCc1cc(Nc2ncc(Br)c(Nc3ccc4nccnc4c3NS(C)(=O)=O)n2)c(OC)cc1N1CCC(N2CCN(C3CC4(CCN(c5ccc6c(c5)CN(C5CCC(=O)NC5=O)C6=O)CC4)C3)CC2)CC1` (stereo not drawn) [Compound 48, N-(6-((5-bromo-2-((4-(4-(4-(7-(2-(2,6-dioxopiperidin-3-yl)-1-oxoisoindolin-5-yl)-7-azaspiro[3.5]nonan-2-yl)piperazin-1-yl)piperidin-1-yl)-5-ethyl-2-methoxyphenyl)amino)pyrimidin-4-yl)amino)quinoxalin-5-yl)methanesulfonamide], for which the DC50 is greater than 1000 nM in assay [1], 4.26 nM in assay [2] and 23.7 nM in assay [3]. Moreover, the GI50 is greater than 1000 nM in assay [4], 6.04 nM in assay [5] and 36.8 nM in assay [6].
`CCc1cc(Nc2ncc(Br)c(Nc3ccc4nccnc4c3NS(C)(=O)=O)n2)c(OC)cc1N1CCC(N2CC3(CCN(c4ccc5c(c4)CN(C4CCC(=O)NC4=O)C5=O)CC3)C2)CC1` (stereo not drawn) [Compound 57, N-(6-((5-bromo-2-((4-(4-(7-(2-(2,6-dioxopiperidin-3-yl)-1~oxoisoindolin-5-yl)-2,7-diazaspiro[3.5]nonan-2-yl)piperidin-1-yl)-5-ethyl-2-methoxyphenyl)amino)pyrimidin-4-yl)amino)quinoxalin-5-yl)methanesulfonamide]: the figures for the DC50 in assay [1], in assay [2] and in assay [3] were greater than 1000 nM, 4.73 nM and 44.5 nM, respectively. The GI50 in assay [4] stood at 360 nM; in assay [5], 5.89 nM; in assay [6] it was 51.5 nM.
As for `CCc1cc(Nc2ncc(Br)c(Nc3ccc4nccnc4c3NS(C)(=O)=O)n2)c(OC)cc1N1CCC(N2CCN(CC3CCN(c4ccc5c(c4)C(=O)N(C4CCC(=O)NC4=O)C5=O)CC3)CC2)CC1` (stereo not drawn) [Compound 6, N-(6-((5-bromo-2-((4-(4-(4-((1-(2-(2,6-dioxopiperidin-3-yl)-1,3-dioxoisoindolin-5-yl)piperidin-4-yl)methyl)piperazin-1-yl)piperidin-1-yl)-5-ethyl-2-methoxyphenyl)amino)pyrimidin-4-yl)amino)quinoxalin-5-yl)methanesulfonamide], the DC50 in assay [1] is greater than 1000 nM; in assay [2], 5.94 nM; in assay [3], 289 nM. Further, the GI50 is greater than 1000 nM in assay [4], 11.2 nM in assay [5] and 282 nM in assay [6].
In the case of `CCc1cc(Nc2ncc(Br)c(Nc3ccc4nccnc4c3NS(C)(=O)=O)n2)c(OC)cc1N1CCC(N2CCN(C(=O)C3CCN(c4ccc5c(c4)CN(C4CCC(=O)NC4=O)C5=O)CC3)CC2)CC1` (stereo not drawn) [Compound 10, N-(6-((5-bromo-2-((4-(4-(4-(1-(2-(2,6-dioxopiperidin-3-yl)-1-oxoisoindolin-5-yl)piperidine-4-carbonyl)piperazin-1-yl)piperidin-1-yl)-5-ethyl-2-methoxyphenyl)amino)pyrimidin-4-yl)amino)quinoxalin-5-yl)methanesulfonamide], the results for the DC50 in assay [1], in assay [2] and in assay [3] were greater than 1000 nM, 1.21 nM and 20 nM, respectively. The GI50 was greater than 1000 nM in assay [4], 9.6 nM in assay [5] and 72.7 nM in assay [6].
For `CCc1cc(Nc2ncc(Br)c(Nc3ccc4nccnc4c3NS(C)(=O)=O)n2)c(OC)cc1N1CCC(N2CCN(CC3CCN(c4ccc5c(c4)CN(C4CCC(=O)NC4=O)C5=O)CC3)CC2)CC1` (stereo not drawn) [Compound 7, N-(6-((5-bromo-2-((4-(4-(4-((1-(2-(2,6-dioxopiperidin-3-yl)-1-oxoisoindolin-5-yl)piperidin-4-yl)methyl)piperazin-1-yl)piperidin-1-yl)-5-ethyl-2-methoxyphenyl)amino)pyrimidin-4~yl)amino)quinoxalin-5-yl)methanesulfonamide], the DC50 was greater than 1000 nM in assay [1], 2.43 nM in assay [2] and 16.6 nM in assay [3]. Besides, the GI50 is greater than 1000 nM in assay [4], 2.84 nM in assay [5] and 41.9 nM in assay [6].
As for `CCc1cc(Nc2ncc(Br)c(Nc3ccc4nccnc4c3NS(C)(=O)=O)n2)c(OC)cc1N1CCC(N2CCN(c3ccc4c(c3)CN([C@H]3CCC(=O)NC3=O)C4=O)CC2)CC1` [Compound 38, (S)-N-(6-((5-bromo-2-((4-(4-(4-(2-(2,6-dioxopiperidin-3-yl)-1-oxoisoindolin-5-yl)piperazin-1-yl)piperidin-1-yl)-5-ethyl-2-methoxyphenyl)amino)pyrimidin-4-yl)amino)quinoxalin-5~yl)methanesulfonamide], the DC50 in assay [1] is greater than 1000 nM; in assay [2], 4.2 nM; in assay [3] it was 35.1 nM. In addition, the GI50 is greater than 1000 nM in assay [4], 9.14 nM in assay [5] and 90.3 nM in assay [6].
In the case of `CCc1cc(Nc2ncc(Br)c(Nc3ccc4nccnc4c3NS(C)(=O)=O)n2)c(OC)cc1N1CCC(N2CCN(CCc3cccc4c3C(=O)N(C3CCC(=O)NC3=O)C4)CC2)CC1` (stereo not drawn) [Compound 8, N-(6-((5-bromo-2-((4-(4-(4-(2-(2-(2,6-dioxopiperidin-3-yl)-3-oxoisoindolin-4-yl)ethyl)piperazin-1-yl)piperidin-1-yl)-5-ethyl-2-methoxyphenyl)amino)pyrimidin-4-yl)amino)quinoxalin-5-yl)methanesulfonamide], the DC50 in assay [1] is greater than 1000 nM; in assay [2], 23.3 nM; in assay [3] it was greater than 1000 nM. Besides, the GI50 is greater than 1000 nM in assay [4], 24.7 nM in assay [5] and 858 nM in assay [6].
Turning to `CCc1cc(Nc2ncc(Br)c(Nc3ccc4nccnc4c3NS(C)(=O)=O)n2)c(OC)cc1N1CCC(N2CCN(CCc3cc(F)c(C4CCC(=O)NC4=O)c(F)c3)CC2)CC1` (stereo not drawn) [Compound 71, N-(6-((5-bromo-2-((4-(4-(4-(4-(2,6-dioxopiperidin-3-yl)-3,5~difluorophenethyl)piperazin-1-yl)piperidin-1-yl)-5-ethyl-2-methoxyphenyl)amino)pyrimidin-4-yl)amino)quinoxalin-5-yl)methanesulfonamide], the figures for the DC50 in assay [1], in assay [2] and in assay [3] were greater than 1000 nM, 3.51 nM and 55.1 nM, respectively. The GI50 was greater than 3000 nM in assay [4], 5.41 nM in assay [5] and 131 nM in assay [6].

The record behind these values is patent US20250002473A1, “QUINOXALINE DERIVED SULFONAMIDES WITH EGFR DEGRADATION ACTIVITIES AND THEIR USES THEREOF” (Accutar Biotechnology Inc., priority 2023, published 2025).
